From patent US4246194A, “Amino-hydroxy-alkyl sulfonic acid-zwitterions” (priority 1979, dated 1981)

Legend:
[1] = cited from earlier work
[2] = use as buffer in biological research; cited from earlier work
[3] = system: NIL B, SV-NIL and BALB/C 3T3 cells; test: effectiveness as cell and tissue culture buffers (overall, cell lines tested); details: selected media; for effectiveness as culture buffer compared with HEPES: vs HEPES; for effectiveness as culture buffer compared with NaHCO3:CO2 system (control): vs NaHCO3:CO2 control
Method: The cell lines used in the tests were NIL B, a hamster fibroblast line; SV-NIL, an SV40-virus transformed line derived from NIL B; and BALB/C 3T3, a mouse embryo tissue. The cells were seeded into T-flasks (screw-capped polystyrene flasks) with a 25 cm^2 area. On the control flask (CO2 atmosphere), the cap was kept loose to allow gas circulation while the caps on the experimental culture flasks were screwed on tightly. The medium used in these tests was Eagle's MEM 4X (see pages 108-112 of Paul, Cell and Tissue Culture, 5th Edition, 1975), in an Earle's salt solution (page 95 of same text) modified to contain 2.2 g/l of bicarbonate for the experimental buffers. The control was not so modified. The control flask was incubated at 37° C. in an atmosphere of 5% CO2 in air whereas the other flasks were incubated at 37° C. in an air atmosphere. The medium was changed every other day.
At appointed times, triplicate flasks were harvested using trypsin, and the approximate cell population was determined using a Coulter electronic particle counter.

[4] = solubility of the zwitterion on acidification; format: physicochemical; details: acidified to pH 1.5 with HCl, water

Row | SMILES | effectiveness as culture buffer compared with HEPES [3] | effectiveness as culture buffer compared with NaHCO3:CO2 system (control) [3] | further results
1 | NC(CO)(CO)CO [Tris, tris-(hydroxy-methyl)aminomethane] |  |  | buffering capacity ([1]; below pH 7.5): poor buffering capacity; reactivity ([1]; primary aliphatic amine): considerable reactivity; inhibitory side effect [2]: often inhibitory
2 | O=S(=O)(O)CC(O)CN1CCN(CCO)CC1 (centres unmarked) [Example 3, N-hydroxyethyl piperazine-N'-2 hydroxypropyl sulfonic acid] | as good as, if not better than | as good as, if not better than | 
3 | O=S(=O)(O)CC(O)CN1CCOCC1 (centres unmarked) [Example 6, 3-(N-morpholino)-2-hydroxypropyl sulfonic acid] | about as good as | not as good as | 
4 | O=S(=O)(O)CC(O)CN1CCN(CC(O)CS(=O)(=O)O)CC1 (centres unmarked) [Example 4, Piperazine-N,N'-2-hydroxypropyl sulfonic acid (dihydrate)] |  |  | solubility [4]: very insoluble
